Activity calls are given as the source filed them. No cut-off for these calls is given here.
Legend:
Histone deacetylase 8 = target: T1, Histone deacetylase 8 (Schistosoma mansoni, UniProt A5H660); assay: Inhibition of Schistosoma mansoni KDAC8 using (FAM)-labeled peptide as substrate after 60 mins by microfluidic assay; conditions: read-out: IC50
T1 sequence (A5H660 whole entry): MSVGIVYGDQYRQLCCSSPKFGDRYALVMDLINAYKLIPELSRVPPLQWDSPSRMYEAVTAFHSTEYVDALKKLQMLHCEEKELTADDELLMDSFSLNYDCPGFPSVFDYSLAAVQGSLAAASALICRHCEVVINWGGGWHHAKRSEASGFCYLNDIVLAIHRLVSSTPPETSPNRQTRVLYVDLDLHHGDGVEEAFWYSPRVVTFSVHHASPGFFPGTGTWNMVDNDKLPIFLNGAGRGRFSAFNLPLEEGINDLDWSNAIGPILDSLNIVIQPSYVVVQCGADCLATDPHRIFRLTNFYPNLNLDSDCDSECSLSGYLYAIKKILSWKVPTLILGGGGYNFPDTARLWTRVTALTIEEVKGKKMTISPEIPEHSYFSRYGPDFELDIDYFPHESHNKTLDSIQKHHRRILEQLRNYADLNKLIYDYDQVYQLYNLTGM

[1] = target: T2, Histone deacetylase 8 (Schistosoma mansoni) (UniProt A5H660); assay: Inhibition of Schistosoma mansoni KDAC8 at 30 uM using (FAM)-labeled peptide as substrate after 60 mins by microfluidic assay
T2 sequence (whole entry): T1 sequence (A5H660 whole entry)

| Compound | IC50 (Histone deacetylase 8) [µM] | inhibition [1] |
| --- | --- | --- |
| NCCCC[C@@H]1N=C(c2ccccc2)c2ccccc2N(CCCCC(=O)NO)C1=O | > 30 | 4.32% |
| CC(OCc1ccccc1)[C@@H]1N=C(c2ccccc2)c2ccccc2NC1=O (single isomer, unassigned) | > 30 | 0% |
| CC(C)[C@@H]1NC(=O)[C@@H]2CCCN2C(=O)[C@@H]2CCCN2C(=O)C[C@@H](C(=O)NCCCC(=O)NO)NC1=O | > 30 | 32% |
| CC(C)(C)OC[C@@H]1N=C(c2ccccc2)c2ccccc2N(CCCCC(=O)O)C1=O | > 30 | 0% |
| COC(=O)CCCCN1C(=O)[C@H](CC(=O)OC(C)(C)C)N=C(c2ccccc2)c2ccccc21 | > 30 | 0% |
| CSCC[C@@H]1N=C(c2ccccc2)c2ccccc2N(CCCCC(=O)O)C1=O | > 30 | 0% |
| CC[C@H](C)[C@@H]1N=C(c2ccccc2)c2ccccc2N(CCCCC(=O)O)C1=O | > 30 | 0% |
| CSCC[C@@H]1N=C(c2ccccc2)c2ccccc2N(CCCCC(=O)NO)C1=O | > 30 | 19.3% |
| COC(=O)CCCCN1C(=O)[C@H](Cc2cc3ccccc3n2C(=O)OC(C)(C)C)N=C(c2ccccc2)c2ccccc21 | > 30 | 0% |
| CC(C)[C@@H]1NC(=O)[C@H]2CCCN2C(=O)[C@@H]2CCCN2C(=O)C[C@H](C(=O)NCCCC(=O)NO)NC1=O | > 30 | < 26% |
| COC(=O)CCCCN1C(=O)[C@H]([C@@H](C)OCc2ccccc2)N=C(c2ccccc2)c2ccccc21 | > 30 | 0% |
| COC(=O)CCCCN1C(=O)[C@@H](CSC(C)(C)C)N=C(c2ccccc2)c2ccccc21 | > 30 | 0% |
| CC(C)(C)Oc1ccc(C[C@@H]2N=C(c3ccccc3)c3ccccc3NC2=O)cc1 | > 30 | 0% |
| CC(C)C[C@@H]1N=C(c2ccccc2)c2ccccc2N(CCCCC(=O)O)C1=O | > 30 | 0% |
| C[C@@H](OCc1ccccc1)[C@@H]1N=C(c2ccccc2)c2ccccc2N(CCCCC(=O)NO)C1=O | > 30 | 20.5% |
| CC(C)(C)OC(=O)C[C@H]1N=C(c2ccccc2)c2ccccc2NC1=O | > 30 | 0% |
| CC(C)(C)OC(=O)NCCCC[C@@H]1N=C(c2ccccc2)c2ccccc2N(CCCCC(=O)O)C1=O | > 30 | 0% |
| O=C(CCCCN1C(=O)[C@@H](CS)N=C(c2ccccc2)c2ccccc21)NO | 20.9 | 57% |
| CC(C)(C)OC(=O)n1c(C[C@@H]2N=C(c3ccccc3)c3ccccc3N(CCCCC(=O)O)C2=O)cc2ccccc21 | > 30 | 0% |

| Compound | IC50 (Histone deacetylase 8) [µM] | inhibition [1] |
| --- | --- | --- |
| CC(C)[C@@H]1N=C(c2ccccc2)c2ccccc2N(CCCCC(=O)NO)C1=O | > 30 | 20.6% |
| CC(C)[C@@H]1NC(=O)[C@H]2CCCN2C(=O)[C@@H]2CCCN2C(=O)C[C@@H](C(=O)NCCCC(=O)NO)NC1=O | > 30 | 21 to 31.9% |
| N=C(N)NCCC[C@@H]1N=C(c2ccccc2)c2ccccc2N(CCCCC(=O)NO)C1=O | > 30 | 23.5% |
| COC(=O)CCCCN1C(=O)[C@H](CCC(=O)NC(c2ccccc2)(c2ccccc2)c2ccccc2)N=C(c2ccccc2)c2ccccc21 | > 30 | 0% |
| CC(C)(C)OC(=O)NCCCC[C@@H]1N=C(c2ccccc2)c2ccccc2N(CCCCC(=O)NO)C1=O | > 30 | 25.1% |
| O=C(O)C[C@H]1N=C(c2ccccc2)c2ccccc2NC1=O | > 30 | 0% |
| O=C(O)CC[C@@H]1N=C(c2ccccc2)c2ccccc2N(CCCCC(=O)NO)C1=O | > 30 | 13.4% |
| CC(C)(C)OC(=O)CC[C@@H]1N=C(c2ccccc2)c2ccccc2N(CCCCC(=O)O)C1=O | > 30 | 0% |
| O=C(C[C@H]1N=C(c2ccccc2)c2ccccc2NC1=O)NO | > 30 | 0% |
| COC(=O)CCCCN1C(=O)[C@H](C(C)C)N=C(c2ccccc2)c2ccccc21 | > 30 | 0% |
| CCC(C)[C@@H]1N=C(c2ccccc2)c2ccccc2N(CCCCC(=O)NO)C1=O (single isomer, unassigned) | > 30 | 11.7% |
| Nc1ccccc1NC(=O)c1ccc(-c2cn(CCc3ccsc3)nn2)cc1 | > 30 | inactive |
| O=C(C[C@@H]1N=C(c2ccccc2)c2ccccc2NC1=O)NO | > 30 | 0% |
| C[C@@H]1N=C(c2ccccc2)c2ccccc2N(CCCCC(=O)O)C1=O | > 30 | 0% |
| COC(=O)CCCCN1C(=O)[C@H](CC(=O)NC(c2ccccc2)(c2ccccc2)c2ccccc2)N=C(c2ccccc2)c2ccccc21 | > 30 | 2.19% |
| O=C(CCCCN1C(=O)CN=C(c2ccccc2)c2ccccc21)NO | > 30 | 39.7% |
| COC(=O)CCCCN1C(=O)[C@H](CCCCNC(=O)OC(C)(C)C)N=C(c2ccccc2)c2ccccc21 | > 30 | 0% |
| NC(=O)CC[C@@H]1N=C(c2ccccc2)c2ccccc2N(CCCCC(=O)NO)C1=O | > 30 | 11.6% |
| O=C(CCCNC(=O)CC[C@@H]1N=C(c2ccccc2)c2ccccc2NC1=O)NO | 6.53 | 81.7% |

| Compound | IC50 (Histone deacetylase 8) [µM] | inhibition [1] |
| --- | --- | --- |
| COC(=O)CCCCN1C(=O)[C@H](CCSC)N=C(c2ccccc2)c2ccccc21 | > 30 | 0% |
| CC(C)(C)SC[C@H]1N=C(c2ccccc2)c2ccccc2N(CCCCC(=O)O)C1=O | > 30 | 0% |
| O=C1Nc2ccccc2C(c2ccccc2)=N[C@H]1Cc1cn(C(c2ccccc2)(c2ccccc2)c2ccccc2)cn1 | > 30 | 9.68% |
| CC(C)C[C@@H]1N=C(c2ccccc2)c2ccccc2NC1=O | > 30 | 0% |
| CC(C)[C@@H]1N=C(c2ccccc2)c2ccccc2NC1=O | > 30 | 0% |
| O=C(CC[C@H]1N=C(c2ccccc2)c2ccccc2NC1=O)NO | > 30 | 24% |
| COC(=O)CCCCN1C(=O)[C@H](C)N=C(c2ccccc2)c2ccccc21 | > 30 | 0% |
| O=C(CC[C@@H]1N=C(c2ccccc2)c2ccccc2NC1=O)NO | > 30 | 25.9% |
| CC(C)(C)OC[C@@H]1N=C(c2ccccc2)c2ccccc2NC1=O | > 30 | 0% |
| C[C@@H]1N=C(c2ccccc2)c2ccccc2N(CCCCC(=O)NO)C1=O | > 30 | 16.9% |
| CC(C)(C)SC[C@H]1N=C(c2ccccc2)c2ccccc2N(CCCCC(=O)NO)C1=O | > 30 | 18.5% |
| CC(C)(C)SC[C@H]1N=C(c2ccccc2)c2ccccc2NC1=O | > 30 | 0% |
| O=C(CCCNC(=O)C[C@@H]1N=C(c2ccccc2)c2ccccc2NC1=O)NO | 12.8 | 70.3% |
| O=C(O)CCCCN1C(=O)[C@H](CC(=O)NC(c2ccccc2)(c2ccccc2)c2ccccc2)N=C(c2ccccc2)c2ccccc21 | > 30 | 0% |
| COC(=O)CCCCN1C(=O)[C@H](CCC(=O)OC(C)(C)C)N=C(c2ccccc2)c2ccccc21 | > 30 | 0% |
| O=C(CCCCN1C(=O)[C@H](CCC(=O)NO)N=C(c2ccccc2)c2ccccc21)NO | > 30 | 33.5% |
| O=C(CCCCN1C(=O)[C@H](CC(=O)NC(c2ccccc2)(c2ccccc2)c2ccccc2)N=C(c2ccccc2)c2ccccc21)NO | 26.3 | 52.3% |
| O=C1Nc2ccccc2C(c2ccccc2)=N[C@H]1Cc1ccccc1 | > 30 | 0% |
| COC(=O)CCCCN1C(=O)[C@H](CCCNC(=N)NS(=O)(=O)c2c(C)c(C)c3c(c2C)CC(C)(C)O3)N=C(c2ccccc2)c2ccccc21 | > 30 | 0% |

Source: ChEMBL document CHEMBL4014283, “Structural insights of SmKDAC8 inhibitors: Targeting Schistosoma epigenetics through a combined structure-based 3D QSAR, in vitro and synthesis strategy” (Bioorg Med Chem, 2017)
